Type in all cases: cell-based, human
For one assay, the system named is A2780 cells. The assay is described as follows: Chemical inhibition of Jak signaling, cytotoxicity assay. As to conditions: inhibitor 10 μM, 2 hours before. The protocol: (§1) FIGS. 7A-7D: Chemical inhibition of Jak signaling. OVCAR-5 cells (FIGS. 7A-7B) or A2780 cells (FIGS. 7C-7D) were treated with either ruxolitinib or tofacitinib for 2 hours at a final concentration of 10 μm before different concentrations of IFNs, IL4-PE or the combination of each were added. Percent viability was measured after 3 days in culture.
(§2) Cell lines were seeded at 10^4 cells/well in a 96-well plate in 100 μL of media and incubated until adherence (4 hr, 37° C., 5% CO2). Serial dilutions of IL4-PE, IFN-α2a, or IFN-γ were added and incubated for three days. IFNs were diluted using serial dilutions in cRPMI to obtain a final concentration of 200 ng/mL of both IFN-α2a or IFN-γ. For ruxolitinib and tofacitinib studies, 10 μM (final concentration) was added to the plates and incubated at 37° C. for 2 hours before IFNs or IL4-PE was added. The media was then removed, and cell viability was determined by crystal violet dye uptake in fixed, live cells. Crystal violet is a triarylmethane dye that binds to ribose type molecules such as DNA in nuclei. The dye staining is directly proportional to the cell biomass. Dye absorbance was measured at 570 nm using a spectrophotometer.

A further assay deals with OVCAR-5 cells. Described as above. As to conditions: inhibitor 10 μM, 2 hours before, 20/4 and 200/40 ng/mL IFNs/IL4-PE, 3 days. The method, then: as §1, §2
In another assay the test system is STAT1. The assay is described as follows: Western blot for phosphorylated STAT1. As to conditions: OVCAR-5 and A2780 cell lines; 20 minutes. The method, then:
FIGS. 6A-6B: Western blot analysis of IFN and IL4-PE STAT activation. (FIG. 6A) Western blots for phosphorylated STAT1 in OVCAR-5 and A2780 cells stimulated with IFNα2a, IFNγ, IL4-PE, or all three agents for 20 minutes at the highest concentrations from FIGS. 1A-1B (representative of three separate experiments). (FIG. 6B) Western blots for phosphorylated STAT6 in OVCAR-5 and A2780 cells stimulated with IFNα2a, IFN, IL4-PE, or all three agents for 20 minutes (representative of three separate experiments). P38 protein kinase was used as a loading control.
Cell pellets were snap-frozen and stored at −80° C. Pellets were thawed and lysed with MPER buffer supplemented with protease inhibitors. Cell lysates were centrifuged at 13,000 RPM at 4° C. for 20 minutes to clarify the lysate. The clarified lysate was removed and placed in a new vial. The protein concentration was measured using a NANODROP® Spectrophotometer (LIFE TECHNOLOGIES®, Wilmington, Del.). The lysate was mixed with reducing loading buffer (LIFE TECHNOLOGIES®, Waltham Mass.) and heated at 90° C. for 10 minutes. The samples were allowed to cool and were either used immediately or stored at 4° C. for future analysis. The samples were analyzed using 10% Bis-Tris gels and then transferred to nitrocellulose membranes per the manufacturer's directions. […]

For `C[C@@H]1CCN(C(=O)CC#N)C[C@@H]1N(C)c1ncnc2[nH]ccc12` [Tofacitinib, tofacitinib], in the assay with A2780 cells, the “effect on IFN signaling / IFN-mediated killing” value is “blocked”. In addition, the “effect on IFN- and IFNs and IL4-PE-mediated cell death / IFN signaling” value in the assay on OVCAR-5 cells was “dose-dependent blocking of IFN signaling”.

Regarding “IFNγ: IFN-γ purchased from INTERMUNE Pharmaceutical Inc.”, the STAT1 phosphorylation result in the assay on STAT1 is given as “induced”.

B1: IFNα: human IFN-α2a, gift of Hoffmann LaRoche (protein)
chain: MARPFAFLMVLVVISYWSTCSLGCDLPQTHNLRNKKILTLLAQMRRLSPLSCLKDRKDFGFPQEKVDAQQIQEAQAIPVLSELTQQILTLFTSKDSSAAWNATLLDSFCTGLHQLLNDLQGCLMQLVGMKELPLTQEDSQLAMKKYFHRITVYLREKKHSPCAWEVVRAEVWRALSSSVNLLARLSEEKE
modifications: Mouse
notes: human IFN-α2a, gift of Hoffmann LaRoche
On to B1, for which the STAT1 phosphorylation entry with STAT1 is reported as “induced”.

For the origin of these results see patent publication US10849960B2 (priority 2017, dated 2020).
